Experimental data reported in patent US12344610B2, “APOL1 inhibitors and methods of use” (Maze Therapeutics, Inc., priority 2022, dated 2025).

Experiments:
Format in all cases: cell-based
[1] = system: HEK293 clonal cell line overexpressing APOL1 G1; test: APOL1 G1 HEK293 cell rescue assay (Example B3); conditions: geometric mean of at least 2 runs, † = single run, ¥ = concentration at 50% rescue estimated (no sigmoidal curve)
Summary of the method: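 Rescue of cell death caused by APOL1 G1 overexpression was measured in a clonal HEK293 line. Compounds were tested in duplicate on one plate, and EC50s were geometric means across at least two runs on different days. Some values are estimated 50%-rescue concentrations where curve fitting failed.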

[2] = system: HEK293 cells overexpressing APOL1 G2; test: APOL1 G2 HEK293 cell rescue assay (reversal of cell death caused by overexpression of APOL1); conditions: geometric mean of at least 2 assay runs, † = single assay run
Summary of the method: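 Each compound tested in duplicate wells on one plate per run, with values usually the geometric mean across at least two runs on different days, occasionally from one run only. Read-out: concentration giving half-maximal rescue of APOL1 G2 overexpression-induced death of HEK293 cells.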

[3] = system: human immortalized podocytes inducibly expressing APOL1 G2; test: APOL1 G2 podocyte cell rescue assay (Example B4); conditions: differentiated human podocytes, doxycycline-induced APOL1 G2, CellTiter-Glo, geometric mean of at least 2 runs, † = single run
Experimental: APOL1 G2 human immortalized podocyte viability assay for measurement of cytotoxicity reversal by compound (APOL1 G2 podocyte cell rescue assay).
Cell Handling. The hTERT-immortalized kidney podocyte cell line was procured from the laboratory of Dr. Moin Saleem at the University of Bristol, UK (Nephrology 17 (2012) 525-531; doi:10.1111/j.1440-1797.2012.01619.x; herein incorporated by reference in its entirety). Parental and engineered cell lines were cultured in RPMI 1640 media (Gibco, 11875093) with 10% Tet System Approved FBS (Takara, 631101). The engineered cell line was maintained under selection (2.5 μg/mL puromycin). Cell lines were maintained and engineered at 33° C. Cell cultures were transferred to 37° C. for 10 to 14 days to initiate differentiation (Nephrology 17 (2012) 525-531; doi:10.1111/j.1440-1797.2012.01619.x; herein incorporated by reference in its entirety). During this time, media was refreshed every 3 days. After differentiation, cells engineered to inducibly express APOL1 G2 were used in the podocyte cell rescue assay.
Cell Line Engineering. The APOL1 G2 coding sequence was cloned into the pLVX-TetOne-Puro vector and verified by sequencing (Genscript Biotech). This construct was designed to have a C-terminal HiBiT tag. Lentiviral packaging of the vector was conducted using the Lenti-X Packaging Single Shots (VSVG) system according to manufacturer instructions (Takara Bio, 631275). A stable cell line was generated by transfecting the parental podocyte cell line with the concentrated virus in media with 5 μg/mL polybrene (Sigma, TR-1003-G). Media was changed the following day. 72 hours post transfection, 2.5 μg/mL puromycin (Gibco, A1113803) was added to the cells and cells were maintained in selection media thereafter. This APOL1 G2 stable cellular pool was subjected to a stringent limiting dilution to generate a pure stable clone (Podocyte/pLVX-TetOne APOL1 G2/clone D10) capable of inducible expression of APOL1 G2.
Assay Setup. T175 flasks containing differentiated podocytes engineered to inducibly express APOL1 G2 (Podocyte/pLVX-TetOne APOL1 G2/clone D10) were washed once with 15 mL of DPBS (Thermo Fisher, 14190-144). These flasks were each trypsinized with 3 mL of prewarmed TrypLE Express (Gibco, 12605-010) and incubated at 37° C. with 5% CO2 until cells detached and neutralized with 7 mL of prewarmed assay media (RPMI 1640 media with 10% Tet System Approved FBS, no selection agent). Cells were pooled and the resulting suspension was gently mixed. The cell suspension was counted using a Countess Cell Counting Chamber (Invitrogen) and the cell concentration was adjusted to 240,000 cells/mL using assay media. Next, 25 μL of a 480 ng/mL working stock of doxycycline diluted in assay media was added to an assay ready plate. All experiments were performed in 384-well, white, solid bottom, tissue culture treated plates (Greiner, 781080). The assay ready compound plates were generated with duplicate 8-point compound dilution series that consisted of 3-fold stepwise dilutions (0.4% DMSO final). The plates were centrifuged at 1000 rpm for 1 minute. 25 μL of diluted cell suspension (final cell density=6,000 cells/well) was added to each well. The plates were centrifuged again at 1000 rpm for 1 minute and then incubated in a humidified incubator (37° C. with 5% CO2). After 95 hours, the assay plates were removed from the incubator and allowed to equilibrate to room temperature for 1 hour. CellTiter-Glo® reagent (Promega, G7570) was prepared according to the manufacturer's instructions. 25 μL of CellTiter-Glo® reagent was added to each well. Assay plates were sealed with foil and mixed for 5 minutes on an orbital shaker (500 rpm) to induce cell lysis. Plates were centrifuged at 1000 rpm for 1 minute. 10 minutes after CellTiter-Glo® reagent addition, an Envision plate reader (Perkin Elmer) was used to measure the luminescent signal of each assay plate. Collaborative Drug Discovery software was utilized for graphing data. […]

[4] = Homo sapiens, HEK293, HEK293 clonal line overexpressing APOL1 G1
[5] = Homo sapiens, HEK293, HEK293 overexpressing APOL1 G2

SMILES	EC50 [1, 4] [nM]	EC50 [2, 5] [nM]	EC50 [3] [nM]	EC50 ([1]; HEK293 clonal line overexpressing APOL1 G1) [nM]	EC50 ([2]; HEK293 overexpressing APOL1 G2) [nM]	EC50 ([3]; Homo sapiens) [nM]
O=C(NC1CCS(=O)(=O)C1)c1ccc(OCCN2CCC3(CC2)C(=O)Nc2ccc(Cl)cc23)cc1F (single isomer, unassigned) [Compound 242, 4-(2-{5-chloro-2-oxo-1,2-dihydrospiro[indole-3,4′-piperidin]-1′-yl}ethoxy)-N-[(3S) or (3R)-1,1-dioxo-1λ^6-thiolan-3-yl]-2-fluorobenzamide]	316	74	19.7			
O=C(NC1CCS(=O)(=O)C1)c1ccc(OCCN2CCC3(CC2)C(=O)Nc2ccc(Cl)cc23)cc1F (single isomer, unassigned) [Compound 243, 4-(2-{5-chloro-2-oxo-1,2-dihydrospiro[indole-3,4′-piperidin]-1′-yl}ethoxy)-N-[(3R) or (3S)-1,1-dioxo-1λ^6-thiolan-3-yl]-2-fluorobenzamide]			4.11	208	46	
O=C(NC1CCS(=O)(=O)CC1)c1ccc(OCCN2CCC3(CC2)C(=O)Nc2ccc(Cl)cc23)cc1F [Compound 240, 4-(2-{5-chloro-2-oxo-1,2-dihydrospiro[indole-3,4′-piperidin]-1′-yl}ethoxy)-N-(1,1-dioxo-1λ^6-thian-4-yl)-2-fluorobenzamide]	282	52.6				13.9
O=C1Nc2ccc(Cl)cc2C12CCN(CCOc1cnc(CCO)nc1)CC2 [Compound 331, 5-chloro-1′-(2-{[2-(2-hydroxyethyl)pyrimidin-5-yl]oxy}ethyl)-1,2-dihydrospiro[indole-3,4′-piperidin]-2-one]	440	166				85.7
